In ChEMBL document CHEMBL1201862, “PubChem BioAssay data set” (2004):
Activity calls are given as the source filed them.

Experiments:
[1] = A cytotoxicity screen of small molecule inhibitors of the PhoP region in Salmonella typhi identified in the primary screen. [Related pubchem assays: 1850, 1864, 1985 ]; type: functional
[2] = HIV-1 Vif–A3G interaction blockers – biochemical, TR-FRET, GST-Vif 1-94, biotin-A3G peptide, dose response retest, primary screen (AID 1117319); type: functional;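 also: TR-FRET signal of purified GST-Vif binding a biotinylated A3G peptide; inhibitors lower the FRET signal by blocking Vif and A3G binding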
Large T antigen = Large T antigen (Simian virus 40, UniProt P03070); type: functional, Betapolyomavirus macacae;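 also: Confirmatory-stage PubChem screen for compounds that inhibit SV40 T antigen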
Sequence of Large T antigen (P03070 whole entry, the tested form may be a part): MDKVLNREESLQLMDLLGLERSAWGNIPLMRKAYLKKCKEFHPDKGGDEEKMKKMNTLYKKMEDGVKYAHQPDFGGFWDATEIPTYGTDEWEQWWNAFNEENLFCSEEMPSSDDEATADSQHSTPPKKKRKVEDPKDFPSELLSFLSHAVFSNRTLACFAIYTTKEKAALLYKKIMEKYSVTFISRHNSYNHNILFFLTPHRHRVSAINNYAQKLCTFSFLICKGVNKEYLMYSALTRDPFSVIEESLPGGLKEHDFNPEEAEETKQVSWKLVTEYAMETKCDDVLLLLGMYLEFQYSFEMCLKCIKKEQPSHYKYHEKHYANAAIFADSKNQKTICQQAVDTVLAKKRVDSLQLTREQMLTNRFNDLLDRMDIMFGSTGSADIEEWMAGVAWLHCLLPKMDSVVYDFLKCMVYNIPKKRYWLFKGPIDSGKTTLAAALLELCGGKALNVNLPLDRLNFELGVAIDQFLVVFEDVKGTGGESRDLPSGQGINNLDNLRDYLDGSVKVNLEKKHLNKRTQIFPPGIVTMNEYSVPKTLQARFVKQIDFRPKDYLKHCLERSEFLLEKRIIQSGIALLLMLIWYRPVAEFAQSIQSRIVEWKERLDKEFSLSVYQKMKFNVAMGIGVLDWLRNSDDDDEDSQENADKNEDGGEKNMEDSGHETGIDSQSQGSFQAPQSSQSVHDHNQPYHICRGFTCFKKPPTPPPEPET

[3] = target: T1, Oxysterols receptor LXR-beta (Homo sapiens, UniProt P55055); experiment: LXR agonists, Gal4 luciferase reporter, dose response, counter-screen for ssDAF-12 agonist project, cell-based, luminescence, HEK293, S. stercoralis campaign (AID 720737); type: functional; details: read-out: IC50 (the source's name)
T1 sequence (P55055 whole entry): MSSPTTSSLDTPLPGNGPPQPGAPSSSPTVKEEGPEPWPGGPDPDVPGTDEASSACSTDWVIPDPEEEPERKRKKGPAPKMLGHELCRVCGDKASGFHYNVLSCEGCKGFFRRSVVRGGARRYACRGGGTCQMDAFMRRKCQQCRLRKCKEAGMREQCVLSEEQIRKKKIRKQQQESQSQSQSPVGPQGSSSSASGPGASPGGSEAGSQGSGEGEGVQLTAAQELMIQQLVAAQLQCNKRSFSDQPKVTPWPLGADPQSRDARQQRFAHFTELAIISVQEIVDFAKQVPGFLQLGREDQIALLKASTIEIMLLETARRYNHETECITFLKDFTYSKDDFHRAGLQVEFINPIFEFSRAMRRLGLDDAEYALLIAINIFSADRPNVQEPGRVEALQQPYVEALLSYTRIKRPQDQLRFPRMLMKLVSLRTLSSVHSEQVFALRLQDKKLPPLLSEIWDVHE

[4] = Luminescence-based cell-based high throughput dose response assay to identify activators of the DAF-12 from the parasite S. stercoralis (ssDAF-12).; type: functional
[5] = target: Disintegrin and metalloproteinase domain-containing protein 17 (Homo sapiens, UniProt P78536); experiment: inhibition of ADAM17 substrate cleavage – biochemical, quenched FRET substrate, counter-screen for ADAM10 exosite inhibitor project, dose response (AID 743253)
Sequence of Disintegrin and metalloproteinase domain-containing protein 17 (P78536 whole entry, the tested form may be a part): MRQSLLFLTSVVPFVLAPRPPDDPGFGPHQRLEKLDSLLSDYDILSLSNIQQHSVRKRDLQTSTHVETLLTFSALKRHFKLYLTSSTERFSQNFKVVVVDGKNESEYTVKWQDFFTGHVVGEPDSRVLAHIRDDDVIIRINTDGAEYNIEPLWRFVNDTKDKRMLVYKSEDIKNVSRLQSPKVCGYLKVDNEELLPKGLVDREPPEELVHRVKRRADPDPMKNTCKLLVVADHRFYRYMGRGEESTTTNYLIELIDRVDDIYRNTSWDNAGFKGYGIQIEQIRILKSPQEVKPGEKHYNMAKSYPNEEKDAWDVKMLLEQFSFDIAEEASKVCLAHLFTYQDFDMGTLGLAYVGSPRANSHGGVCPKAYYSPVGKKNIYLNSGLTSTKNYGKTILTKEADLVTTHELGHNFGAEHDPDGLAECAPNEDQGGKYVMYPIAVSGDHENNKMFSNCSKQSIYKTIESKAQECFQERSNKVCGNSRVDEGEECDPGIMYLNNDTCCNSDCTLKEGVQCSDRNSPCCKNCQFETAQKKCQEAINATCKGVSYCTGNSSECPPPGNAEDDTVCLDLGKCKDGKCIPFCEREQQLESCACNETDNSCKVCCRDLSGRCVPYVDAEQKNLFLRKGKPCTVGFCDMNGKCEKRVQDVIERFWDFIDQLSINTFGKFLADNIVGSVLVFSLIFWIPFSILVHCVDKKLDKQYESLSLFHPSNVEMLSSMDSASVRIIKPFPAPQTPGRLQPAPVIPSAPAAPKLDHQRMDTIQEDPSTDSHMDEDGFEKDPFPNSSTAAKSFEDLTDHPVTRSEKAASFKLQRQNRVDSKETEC

[6] = potency of ADAM10 substrate cleavage blockers – biochemical, QFRET, dose response (AID 743254);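 also: ADAM10 enzyme with the DM2 quenched FRET peptide as substrate; EDANS fluorescence gain as the protease cuts the substrate; inhibitor potency against ADAM10 proteolytic activity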
[7] = NIH3T3 cell viability loss – ATP luminescence, mouse fibroblasts, counter-screen, dose response (AID 2010); type: functional, cell-based;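 also: cells exposed to compound for about 90 hours before reading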
[8] = Trypanosoma cruzi growth suppression in host cells – NIH3T3 host cells, beta-gal luminescence, confirmation (AID 2044); type: functional, cell-based;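 also: intracellular parasites grown in NIH/3T3 mouse fibroblasts as host cells; luminescent beta-galactosidase reporter signal from transgenic T. cruzi replicating inside host cells; inhibitors lower the luminescence signal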
Paired box protein Pax-8 = Paired box protein Pax-8 (Homo sapiens, UniProt Q06710); experiment: PAX8 transcriptional activity inhibition in RMG-I – RMG-I cells, luciferase, cherry-pick, dose response (AID 687027); type: functional, cell-based;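 also: luciferase reporter driven by Pax8 target thyroperoxidase promoter measured by SteadyGlo luminescence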
Sequence of Paired box protein Pax-8 (Q06710 whole entry): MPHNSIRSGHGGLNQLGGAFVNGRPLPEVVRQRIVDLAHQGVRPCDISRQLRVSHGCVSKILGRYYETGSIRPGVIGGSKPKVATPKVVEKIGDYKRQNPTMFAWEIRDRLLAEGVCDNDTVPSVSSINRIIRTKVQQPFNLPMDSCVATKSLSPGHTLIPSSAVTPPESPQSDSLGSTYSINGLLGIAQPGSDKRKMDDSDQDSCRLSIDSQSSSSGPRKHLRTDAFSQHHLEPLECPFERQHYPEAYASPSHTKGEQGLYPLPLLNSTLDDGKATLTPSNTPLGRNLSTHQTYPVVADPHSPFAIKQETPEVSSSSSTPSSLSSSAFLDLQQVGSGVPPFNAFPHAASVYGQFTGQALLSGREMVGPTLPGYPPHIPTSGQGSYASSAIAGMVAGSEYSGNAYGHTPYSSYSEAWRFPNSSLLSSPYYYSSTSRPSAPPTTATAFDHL

[9] = IGROV1 cell killing – plate reader, dry powder samples, PAX8 inhibitor project, dose response (AID 743043); type: functional, cell-based; details: IGROV-1
Aminopeptidase N = target: T2, Aminopeptidase N (Plasmodium falciparum FcB1/Columbia, UniProt O96935); experiment: malaria alanyl aminopeptidase activity blockers – biochemical, fluorogenic H-Leu-NHMec substrate, 1536-well (AID 1445); design: species or system Plasmodium falciparum 3D7, 3D7
T2 sequence (O96935 whole entry): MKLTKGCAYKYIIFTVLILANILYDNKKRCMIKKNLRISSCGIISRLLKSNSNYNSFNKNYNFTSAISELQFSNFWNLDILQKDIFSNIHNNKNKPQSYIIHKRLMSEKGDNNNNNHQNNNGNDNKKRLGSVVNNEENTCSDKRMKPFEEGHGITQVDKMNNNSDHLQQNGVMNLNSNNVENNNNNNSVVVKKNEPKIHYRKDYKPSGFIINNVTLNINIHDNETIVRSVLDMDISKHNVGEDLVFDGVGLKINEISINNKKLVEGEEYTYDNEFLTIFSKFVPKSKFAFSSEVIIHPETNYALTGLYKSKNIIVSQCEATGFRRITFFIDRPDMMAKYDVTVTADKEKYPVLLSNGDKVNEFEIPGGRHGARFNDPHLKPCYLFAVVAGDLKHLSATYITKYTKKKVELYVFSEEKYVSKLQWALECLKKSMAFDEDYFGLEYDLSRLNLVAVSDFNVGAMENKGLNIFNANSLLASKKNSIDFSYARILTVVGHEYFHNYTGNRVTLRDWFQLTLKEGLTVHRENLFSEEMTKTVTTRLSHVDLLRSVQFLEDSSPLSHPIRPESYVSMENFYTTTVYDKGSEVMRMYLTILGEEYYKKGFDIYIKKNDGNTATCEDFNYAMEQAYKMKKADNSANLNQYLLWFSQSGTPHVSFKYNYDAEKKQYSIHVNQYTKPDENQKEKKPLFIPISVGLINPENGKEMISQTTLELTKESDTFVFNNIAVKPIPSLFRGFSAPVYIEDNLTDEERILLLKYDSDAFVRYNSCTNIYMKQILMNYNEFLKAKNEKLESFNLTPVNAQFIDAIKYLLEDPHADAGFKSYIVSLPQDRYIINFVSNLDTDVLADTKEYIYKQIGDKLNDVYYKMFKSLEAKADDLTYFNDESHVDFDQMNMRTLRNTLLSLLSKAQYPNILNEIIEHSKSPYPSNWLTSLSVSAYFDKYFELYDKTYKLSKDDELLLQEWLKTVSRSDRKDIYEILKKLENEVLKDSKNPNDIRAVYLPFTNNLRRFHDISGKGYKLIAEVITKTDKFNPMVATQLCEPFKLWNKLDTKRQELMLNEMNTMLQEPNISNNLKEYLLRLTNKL

[10] = viability of uninfected HEp-2 cells – cell-based, HTS, cytotoxicity control for RSV inhibitor project, dose response (AID 2410); type: functional; details: human respiratory syncytial virus

Q: For CCN(CC)CCCNC(=O)c1c(O)nc2c(c1O)CCCC2, which EC50 [1] is on record?
A: > 50 µM (active)

Q: Which results are given for CCN(CC)c1ccc(NC(=O)c2ccco2)cc1?
A: IC50 [2]: > 100 µM (active); IC50 (Large T antigen): 5.01 µM (active)

Q: With Clc1cccc(-c2nc3c4ccccc4ccn3c2Cc2ccsc2)c1 as the compound, how does the EC50 [3] read?
A: > 67.6 µM (inactive)

Q: What about the IC50 [4] of the same compound?
A: > 67.6 µM (inactive)

Q: What does the source list for COCCCNc1nc2c(-c3ccc(C)cc3)nnn2c2ccccc12?
A: EC50 [3]: > 67.5 µM (inactive); IC50 [4]: > 67.5 µM (inactive)

Q: With COc1ccc(Cl)cc1N(CC(=O)Nc1ccc2c(c1)OCO2)S(C)(=O)=O as the compound, how does the IC50 [2] read?
A: > 100 µM (active)

Q: For CC1CCN(C(=O)COc2ccc(Nc3ccccc3)cc2)CC1, which EC50 [1] is on record?
A: > 50 µM (active)

Q: For COc1ccc(-n2c(Cc3cccs3)nnc2SCC(=O)Nc2ccc(OCc3ccccc3)cc2)cc1, which IC50 [5] is on record?
A: > 69.5 µM (inactive)

Q: What about the IC50 [6] of the same compound?
A: > 69.5 µM (inactive)

Q: For CCS(=O)(=O)c1ccc2oc(Nc3cccc(OC)c3)nc2c1, which IC50 [2] is on record?
A: > 100 µM (active)

Q: For C[C@]12CCC(O)CC1=CCC1C2CC[C@]2(C)/C(=N\NC(N)=S)CCC12 (stereo partly drawn), which EC50 [7] is on record?
A: > 60 µM (not active)

Q: And the EC50 [8]?
A: < 0.1 µM (active)

Q: What about the EC50 (cells) of the same compound?
A: 0.103 µM (active)

Q: What does the source list for C[C@@H]1CCCCO[C@@H](CN(C)Cc2ccc(C(F)(F)F)cc2)[C@H](C)CN([C@H](C)CO)C(=O)c2cc(NC(=O)c3ccccc3)ccc2O1?
A: AC50 (Paired box protein Pax-8): 9.55 µM (active); AC50 [9]: 40.9 µM (active)

Q: Which IC50 (Aminopeptidase N) does the source give for CN(C)C=O.Cc1ccc(-c2cc(-c3nnc(S)o3)c3ccccc3n2)cc1 here?
A: 35.5 µM (active)

Q: Which results are given for COc1ccc(C2CC(c3cccs3)=NN2C(=O)CN2CCCCC2)cc1 (stereo not drawn)?
A: EC50 [3]: > 67.5 µM (inactive); IC50 [4]: > 67.5 µM (inactive)

Q: What does the source list for O=C(c1cccs1)N1N=C(c2ccccc2)CC1c1ccc(O)cc1 (stereo not drawn)?
A: CC50 [10]: 24.2 µM (active); IC50 [5]: > 69.5 µM (inactive); IC50 [6]: > 69.5 µM (inactive)
